Patent US9241487B2, “Pyrimidine derivatives and use thereof as pesticides” (BAYER INTELLECTUAL PROPERTY GMBH, priority 2010, dated 2016)

What was measured:
Type in all cases: in vivo
Sphaerotheca fuliginea = test: Sphaerotheca test (cucumber)/protective; settings: Podosphaera fuliginea, 168 h, cucumber plants, protective spray, evaluation 7 days after inoculation, read-out: Efficacy (%)
Description: Sphaerotheca Test (Cucumber)/Protective
Solvent: 49 parts by weight of N,N-dimethylformamide
(§1) Emulsifier: 1 part by weight of alkylaryl polyglycol ether
To produce a suitable preparation of active compound, 1 part by weight of active compound is mixed with the stated amounts of solvent and emulsifier, and the concentrate is diluted with water to the desired concentration. To test for protective activity, young cucumber plants are sprayed with the preparation of active compound at the stated application rate. 1 day after the treatment, the plants are inoculated with a spore suspension of Sphaerotheca fuliginea. The plants are then placed in a greenhouse at 70% relative air humidity and a temperature of 23° C. Evaluation follows 7 days after the inoculation. 0% means an efficacy which corresponds to that of the control, whereas an efficacy of 100% means that no infection is observed. In this test, the following compounds according to the invention show, at an active compound concentration of 500 ppm, an efficacy of 70% or more: […]

Puccinia triticina = Puccinia triticina test (wheat)/protective; settings: 192 h, protective spray, evaluation 8 days after inoculation, read-out: Efficacy (%)
Description: Puccinia triticina Test (Wheat)/Protective
(§2) Solvent: 49 parts by weight of N,N-dimethylacetamide
as §1
To produce a suitable preparation of active compound, 1 part by weight of active compound is mixed with the stated amounts of solvent and emulsifier, and the concentrate is diluted with water to the desired concentration. To test for protective activity, young plants are sprayed with the preparation of active compound at the stated application rate. After the spray coating has dried on, the plants are sprayed with spores with a spore suspension of Puccinia triticina. The plants remain in an incubation cabin at 20° C. and 100% relative atmospheric humidity for 48 hours. The plants are placed in a greenhouse at a temperature of about 20° C. and a relative atmospheric humidity of about 80%. Evaluation follows 8 days after the inoculation. 0% means an efficacy which corresponds to that of the control, whereas an efficacy of 100% means that no infection is observed.
In this test, the following compounds according to the invention show, at an active compound concentration of 500 ppm, an efficacy of 70% or more: […]

Pyrenophora teres = Pyrenophora teres test (barley)/protective; settings: protective spray, evaluation 7-9 days after inoculation
Description: Pyrenophora teres Test (Barley)/Protective
as §2, §1
(§3) To produce a suitable preparation of active compound, 1 part by weight of active compound is mixed with the stated amounts of solvent and emulsifier, and the concentrate is diluted with water to the desired concentration. To test for protective activity, young plants are sprayed with the preparation of active compound at the stated application rate. 1 day after this treatment, the plants are inoculated with an aqueous spore suspension of Pyrenophora teres. The plants remain in an incubation cabin at 20° C. and 100% relative atmospheric humidity for 48 hours. The plants are placed in a greenhouse at a temperature of about 20° C. and a relative atmospheric humidity of about 80%. Evaluation is carried out 7-9 days after the inoculation. 0% means an efficacy which corresponds to that of the control, whereas an efficacy of 100% means that no infection is observed.

Phakopsora pachyrhizi = Phakopsora pachyrhizi test (soya bean)/protective; settings: protective spray, 100 ppm, evaluation 11 days after inoculation
Description: Phakopsora pachyrhizi Test (Soya Bean)/Protective
Solvent: 28.5 parts by weight of acetone
Emulsifier: 1.5 part by weight of polyoxyethylene alkylphenyl ether
as §3, with “spraying,” for “this treatment,”, “the soya bean rust pathogen (Phakopsora pachyrhizi).” for “Pyrenophora teres. The plants remain in an incubation cabin at 20° C. and 100% relative atmospheric humidity for 48 hours.”, “follows 11” for “is carried out 7-9”
In this test, the following compounds according to the invention show, at an active compound concentration of 100 ppm, an efficacy of 80% or more: […]

Row | Compound | pest or weed control at 500 ppm (Sphaerotheca fuliginea) [%] | pest or weed control at 500 ppm (Puccinia triticina) [%] | Efficacy (%) (Pyrenophora teres; 100 ppm) | Efficacy (%) (Pyrenophora teres; 500 ppm) | Efficacy (%) (Phakopsora pachyrhizi)
1 | CC(C)C(O)(COc1ccc(OC(F)(F)F)cc1)c1cncnc1 (stereo not drawn) [Compound 2] | 99 | 100 | 0 | 0 | –
2 | CC(C)(C)C(O)(COc1ccc(OC(F)(F)F)cc1)c1cncnc1 (stereo not drawn) [Compound 12] | 100 | 100 | 60 | 95 | 98
3 | CC(C)(C)C(O)(COc1ccc(SC(F)(F)F)cc1)c1cncnc1 (stereo not drawn) [Compound 17] | 95 | 100 | – | – | 97
4 | CC1(C(O)(COc2ccc(OC(F)(F)F)cc2)c2cncnc2)CC1 (stereo not drawn) [Compound 18] | 95 | 100 | – | – | 98
